Experimental data: patent US8178577B2, “Tricyclic derivatives as potent and selective histone deacetylase inhibitors” (Shenzhen Chipscreen Biosciences Ltd., priority 2008, dated 2012)

Columns and labels:
total HDAC enzyme = assay: In vitro inhibition of total HDAC enzyme activity (BIOMOL HDAC Fluorimetric Assay/Drug Discovery Kit, HeLa extract); assay type: biochemical
Method: Measurement of In Vitro Inhibition of Total HDAC Enzyme Activity:
The in vitro inhibition of total HDAC enzyme was determined by HDAC Fluorimetric Assay/Drug Discovery Kit (BIOMOL) according to manufacture's instruction. • 1. Add Assay buffer, diluted trichostatin A or test inhibitor to appropriate wells of the microtiter plate. Following table lists examples of various assay types and the additions required for each test.
• 2. Add diluted HeLa extract or other HDAC sample to all wells except those that are to be “No Enzyme Controls” (Blank). • 3. Allow diluted Fluor de LYS™ Substrate and the samples in the microtiter plate to equilibrate to assay temperature (25° C.). • 4. Initiate HDAC reactions by adding diluted substrate (25 μl) to each well and mixing thoroughly. • 5. Allow HDAC reactions to proceed for desired length of time and then stop them by addition of Fluor de Lys™ Developer (50 μl). Incubate plate at room temperature (25° C.) for 10-15 min. • 6. Read samples in a microtiter-plate reading fluorimeter capable of excitation at a wavelength in the range 350-380 nm and detection of emitted light in the range 440-460 nm. Measurement of In Vivo Inhibition of HDAC Subtype Activity: […]

HDAC Class I = assay: P21 reporter gene assay in HeLa cells; assay type: cell-based; conditions: relative to SAHA, 24 hours
Method: (§1) HDAC subtype selectivity inhibition assay of tested compounds was carried out by several reporter gene assays experiments. Briefly, HeLa cells were seeded in 96-well plates the day before transfection to give a confluence of 50-80%. Cells were transfected with one of reporter gene plasmids containing a promoter sequences or response elements upstream of a luciferase gene construct using FuGene6 transfection reagent according to the manufacturer's instructions (Roche). The promoter or response elements including p21-promoter, gdf11-promoter, serum response element (SRE), MEF-binding element were fused upstream to the luciferase gene reporter construct. For normalizing the transfection efficiency, a GFP expression plasmid was cotransfected. Cells were allowed to express protein for 24 hours followed by addition of individual compounds or the vehicle (DMSO). 24 hours later the cells were harvested, and the luciferase assays were performed using the luciferase assay kit according to the manufacturer's instructions (Promega). To normalize the data from the luciferase assays, β-galactosidase activity from transfected cells was measured using a kit (Promega) as instructed by the manufacturer.

HDAC3 = molecular target: T1, HDAC3 (Homo sapiens, UniProt O15379); assay: gdf11 reporter gene assay in HeLa cells; assay type: cell-based; conditions: for activation at 10 µM: HeLa, 24 h, read-out: % of SAHA Response for HDAC3 at 10 μM (gdf11 reporter gene)
T1 construct: endogenous in cells; host or cells: HeLa
T1 sequence (O15379 whole entry): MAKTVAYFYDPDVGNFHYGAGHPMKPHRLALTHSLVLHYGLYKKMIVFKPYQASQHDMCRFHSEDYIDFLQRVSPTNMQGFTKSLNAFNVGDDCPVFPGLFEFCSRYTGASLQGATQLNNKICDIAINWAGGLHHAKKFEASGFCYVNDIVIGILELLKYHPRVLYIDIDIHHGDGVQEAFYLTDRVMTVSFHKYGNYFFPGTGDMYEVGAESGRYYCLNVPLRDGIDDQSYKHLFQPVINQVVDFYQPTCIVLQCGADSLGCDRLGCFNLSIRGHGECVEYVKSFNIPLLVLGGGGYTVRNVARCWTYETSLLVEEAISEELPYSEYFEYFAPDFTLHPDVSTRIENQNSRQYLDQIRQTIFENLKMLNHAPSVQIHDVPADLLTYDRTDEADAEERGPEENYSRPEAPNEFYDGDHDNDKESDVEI
T1 sequence (Q9Y618 whole entry partner): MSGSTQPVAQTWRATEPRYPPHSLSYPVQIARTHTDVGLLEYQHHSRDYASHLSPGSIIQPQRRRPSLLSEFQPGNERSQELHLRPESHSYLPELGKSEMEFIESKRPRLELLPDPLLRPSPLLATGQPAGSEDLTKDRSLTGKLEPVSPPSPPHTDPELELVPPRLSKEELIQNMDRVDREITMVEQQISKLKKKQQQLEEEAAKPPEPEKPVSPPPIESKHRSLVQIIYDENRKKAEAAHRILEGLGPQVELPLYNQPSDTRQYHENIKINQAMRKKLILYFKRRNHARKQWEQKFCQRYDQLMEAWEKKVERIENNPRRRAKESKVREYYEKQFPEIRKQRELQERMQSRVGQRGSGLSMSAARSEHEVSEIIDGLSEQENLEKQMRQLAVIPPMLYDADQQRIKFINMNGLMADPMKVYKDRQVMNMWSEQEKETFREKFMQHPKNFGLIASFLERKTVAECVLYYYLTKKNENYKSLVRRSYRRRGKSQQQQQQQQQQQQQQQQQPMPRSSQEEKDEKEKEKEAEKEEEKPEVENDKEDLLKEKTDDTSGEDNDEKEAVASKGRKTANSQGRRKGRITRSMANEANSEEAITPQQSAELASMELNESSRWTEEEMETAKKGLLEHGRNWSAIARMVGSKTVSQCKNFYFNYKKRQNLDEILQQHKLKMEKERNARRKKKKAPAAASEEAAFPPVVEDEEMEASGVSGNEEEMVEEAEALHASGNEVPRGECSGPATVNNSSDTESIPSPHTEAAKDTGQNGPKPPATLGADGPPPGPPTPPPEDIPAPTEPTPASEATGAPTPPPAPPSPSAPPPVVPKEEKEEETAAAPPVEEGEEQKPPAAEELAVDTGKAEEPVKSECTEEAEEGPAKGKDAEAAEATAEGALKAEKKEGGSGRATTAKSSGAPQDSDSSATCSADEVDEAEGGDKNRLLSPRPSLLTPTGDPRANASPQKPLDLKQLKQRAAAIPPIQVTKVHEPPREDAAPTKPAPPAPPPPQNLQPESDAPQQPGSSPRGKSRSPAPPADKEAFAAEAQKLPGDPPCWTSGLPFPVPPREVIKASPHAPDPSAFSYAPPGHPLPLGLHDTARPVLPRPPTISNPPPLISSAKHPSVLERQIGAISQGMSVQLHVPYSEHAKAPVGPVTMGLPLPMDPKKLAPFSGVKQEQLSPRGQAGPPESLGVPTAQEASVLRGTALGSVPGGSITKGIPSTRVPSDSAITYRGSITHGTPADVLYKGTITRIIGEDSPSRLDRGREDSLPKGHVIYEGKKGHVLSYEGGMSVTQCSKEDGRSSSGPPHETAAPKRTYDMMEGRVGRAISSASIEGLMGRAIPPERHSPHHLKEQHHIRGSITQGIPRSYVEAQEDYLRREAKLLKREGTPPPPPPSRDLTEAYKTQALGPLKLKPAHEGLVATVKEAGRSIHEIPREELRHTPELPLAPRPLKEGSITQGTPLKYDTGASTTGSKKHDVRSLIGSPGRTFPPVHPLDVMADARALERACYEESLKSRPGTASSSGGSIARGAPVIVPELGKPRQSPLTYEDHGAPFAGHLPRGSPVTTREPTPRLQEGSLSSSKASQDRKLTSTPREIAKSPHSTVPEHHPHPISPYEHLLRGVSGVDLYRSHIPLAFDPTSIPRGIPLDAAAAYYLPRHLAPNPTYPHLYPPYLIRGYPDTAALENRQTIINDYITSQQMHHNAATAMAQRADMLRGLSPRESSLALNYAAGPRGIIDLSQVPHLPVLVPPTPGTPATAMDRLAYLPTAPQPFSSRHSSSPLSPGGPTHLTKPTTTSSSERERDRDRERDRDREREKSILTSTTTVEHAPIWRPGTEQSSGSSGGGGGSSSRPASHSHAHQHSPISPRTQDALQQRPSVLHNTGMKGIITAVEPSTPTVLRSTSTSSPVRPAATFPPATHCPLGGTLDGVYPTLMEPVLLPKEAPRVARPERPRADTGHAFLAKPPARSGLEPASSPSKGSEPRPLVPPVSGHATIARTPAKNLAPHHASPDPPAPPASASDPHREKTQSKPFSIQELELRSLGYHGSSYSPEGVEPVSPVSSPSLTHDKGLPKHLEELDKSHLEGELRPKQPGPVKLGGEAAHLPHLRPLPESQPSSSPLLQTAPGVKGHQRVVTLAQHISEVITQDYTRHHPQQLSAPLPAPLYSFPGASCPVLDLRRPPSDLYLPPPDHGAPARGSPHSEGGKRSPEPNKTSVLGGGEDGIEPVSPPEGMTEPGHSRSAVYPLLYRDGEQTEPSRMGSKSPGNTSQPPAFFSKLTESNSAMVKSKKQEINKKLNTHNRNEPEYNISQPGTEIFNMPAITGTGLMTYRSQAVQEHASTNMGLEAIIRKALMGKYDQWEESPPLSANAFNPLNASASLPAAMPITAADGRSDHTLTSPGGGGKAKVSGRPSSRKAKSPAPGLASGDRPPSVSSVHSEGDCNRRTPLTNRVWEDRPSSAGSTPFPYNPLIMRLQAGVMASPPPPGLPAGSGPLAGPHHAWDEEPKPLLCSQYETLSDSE
Method: as §1

HDAC4/5 = assay: MEF2 reporter gene assay in HeLa cells; assay type: cell-based; conditions: relative to SAHA, 24 hours
Method: as §1

HDAC7 = molecular target: T2, HDAC7 (Homo sapiens, UniProt Q8WUI4); assay: Nur77 reporter gene assay in HeLa cells; assay type: cell-based; conditions: for activation at 10 µM: HeLa, 24 h, read-out: % of SAHA Response for HDAC7 at 10 μM (Nur77 reporter gene)
T2 construct: endogenous in cells; host or cells: HeLa
T2 sequence (Q8WUI4 1-952): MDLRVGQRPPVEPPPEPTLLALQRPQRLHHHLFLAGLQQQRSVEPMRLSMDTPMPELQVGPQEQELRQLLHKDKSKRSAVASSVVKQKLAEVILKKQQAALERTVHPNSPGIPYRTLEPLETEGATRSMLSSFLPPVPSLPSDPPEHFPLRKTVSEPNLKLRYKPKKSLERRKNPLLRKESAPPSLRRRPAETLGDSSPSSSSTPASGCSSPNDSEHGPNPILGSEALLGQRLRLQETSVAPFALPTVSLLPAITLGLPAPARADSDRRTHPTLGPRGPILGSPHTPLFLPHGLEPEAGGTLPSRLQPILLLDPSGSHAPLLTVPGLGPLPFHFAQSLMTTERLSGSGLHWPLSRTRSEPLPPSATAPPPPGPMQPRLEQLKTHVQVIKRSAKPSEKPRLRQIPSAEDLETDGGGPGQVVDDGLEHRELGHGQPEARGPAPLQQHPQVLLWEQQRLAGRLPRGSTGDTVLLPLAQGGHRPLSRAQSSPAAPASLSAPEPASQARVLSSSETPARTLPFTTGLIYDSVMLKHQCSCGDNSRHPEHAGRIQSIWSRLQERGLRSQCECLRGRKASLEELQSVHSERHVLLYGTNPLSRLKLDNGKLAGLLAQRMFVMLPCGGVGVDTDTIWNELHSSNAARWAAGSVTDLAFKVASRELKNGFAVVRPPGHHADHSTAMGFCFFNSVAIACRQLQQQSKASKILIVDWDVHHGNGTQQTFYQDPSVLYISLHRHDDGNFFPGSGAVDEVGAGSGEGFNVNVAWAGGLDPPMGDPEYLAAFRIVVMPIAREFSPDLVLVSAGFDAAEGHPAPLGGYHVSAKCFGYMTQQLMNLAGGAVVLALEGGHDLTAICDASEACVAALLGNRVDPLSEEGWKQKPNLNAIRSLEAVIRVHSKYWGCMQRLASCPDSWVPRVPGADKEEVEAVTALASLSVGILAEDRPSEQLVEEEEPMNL
Method: as §1

Hut-78 = assay: Cell proliferation (MTS), Hut-78; assay type: cell-based; conditions: Homo sapiens, HuT78, 72 hours
Method: (§2) Measurement of In Vivo Cell Proliferation:
(§3) Tumor cells were trypsinized and plated into 96-well plates at 3,000 per well and incubated in complete medium with 10% FBS for 24 hours. Compounds were added over a final concentration range of 100 μmol/L to 100 nmol/L in 0.1% DMSO and incubated for 72 hours in complete medium. The effects on proliferation were determined by addition of MTS reagent (Promega) according to the instruction, incubation for 2 hours at 37° C. in CO2 incubator, and record the absorbance at 490 nm using an ELISA plate reader.

A549 = assay: Cell proliferation (MTS), A549; assay type: cell-based; conditions: Homo sapiens, 72 hours
Method: as §2, §3

HeLa = assay: Cell proliferation (MTS), HeLa; assay type: cell-based; conditions: Homo sapiens, 72 hours
Method: as §2, §3

HL60 = assay: Cell proliferation (MTS), HL60; assay type: cell-based; conditions: Homo sapiens, HL-60, 72 hours
Method: as §2, §3

| Compound | % of Inhibition on total HDAC enzyme at 30 μM (total HDAC enzyme) [%] | activation at 10 µM (HDAC3) [%] | activation at 10 µM (HDAC7) [%] | % of SAHA Response for HDAC Class I at 10 μM (P21 reporter gene) (HDAC Class I) [%] | % of SAHA Response for HDAC4/5 at 10 μM (MEF2 reporter gene) (HDAC4/5) [%] | GI50 (Hut-78) [µM] | GI50 (A549) [µM] | GI50 (HeLa) [µM] | GI50 (HL60) [µM] | % of SAHA Response for HDAC3 at 10 μM (gdf11 reporter gene) (HDAC3; 10 μM, relative to SAHA, HeLa cells, 24 hours) [%] | % of SAHA Response for HDAC7 at 10 μM (Nur77 reporter gene) (HDAC7) [%] |
| --- | --- | --- | --- | --- | --- | --- | --- | --- | --- | --- | --- |
| Nc1ccccc1NC(=O)CCCCNC(=O)C=C1c2ccccc2-c2ccccc21 [Example 7, 5-(2-(9H-fluoren-9-ylidene)acetamido)-N-(2-aminophenyl)pentanamide] | 42 | 36 | 19 | 49 | 31 | – | – | – | – | – | – |
| Nc1cc(F)ccc1NC(=O)CCCCNC(=O)C=C1c2ccccc2-c2ccccc21 [Example 8, 5-(2-(9H-fluoren-9-ylidene)acetamido)-N-(2-amino-4-fluorophenyl)pentanamide] | 31.7 | 10 | 7 | 16 | 30 | – | – | – | – | – | – |
| O=C(C=C1c2ccccc2-c2ccccc21)NCCCCCC(=O)NO [Example 11, 6-(2-(9H-fluoren-9-ylidene)acetamido)-N-hydroxyhexanamide] | 99 | – | – | 77 | – | < 0.1 | 2.34 | 0.52 | < 0.1 | – | – |
| Nc1cc(Cl)ccc1NC(=O)CCCCCNC(=O)C=C1c2ccccc2-c2ccccc21 [Example 14, 6-(2-(9H-fluoren-9-ylidene)acetamido)-N-(2-amino-4-chlorophenyl)hexanamide] | – | 6 | 4 | 13 | 9 | – | – | – | – | – | – |
| Cc1ccc(NC(=O)CCCCCNC(=O)C=C2c3ccccc3-c3ccccc32)c(N)c1 [Example 15, 6-(2-(9H-fluoren-9-ylidene)acetamido)-N-(2-amino-4-methylphenyl)hexanamide] | 42.4 | 14 | 4 | 21 | 15 | – | – | – | – | – | – |
| COc1ccc(NC(=O)CCCCCNC(=O)C=C2c3ccccc3-c3ccccc32)c(N)c1 [Example 16, 6-(2-(9H-fluoren-9-ylidene)acetamido)-N-(2-amino-4-methoxyphenyl)hexanamide] | 29.2 | 12 | 10 | 21 | 27 | – | – | – | – | – | – |
| Nc1cc(C(F)(F)F)ccc1NC(=O)CCCCCNC(=O)C=C1c2ccccc2-c2ccccc21 [Example 17, 6-(2-(9H-fluoren-9-ylidene)acetamido)-N-(2-amino-4-trifluoromethylphenyl)hexanamide] | 24.1 | 7 | 7 | 12 | 21 | – | – | – | – | – | – |
| O=C(CCCCCCC(=O)Nc1ccccc1)NO [SAHA, suberoylanilide hydroxamic acid, reference compound] | – | – | – | 100 | 100 | – | – | – | – | 100 | 100 |

Further lines, with some results ahead:

| % of Inhibition on total HDAC enzyme at 30 μM (total HDAC enzyme) [%] | activation at 10 µM (HDAC3) [%] | activation at 10 µM (HDAC7) [%] | Compound | % of SAHA Response for HDAC Class I at 10 μM (P21 reporter gene) (HDAC Class I) [%] | % of SAHA Response for HDAC4/5 at 10 μM (MEF2 reporter gene) (HDAC4/5) [%] | GI50 (Hut-78) [µM] | GI50 (A549) [µM] | GI50 (HeLa) [µM] | GI50 (HL60) [µM] | % of SAHA Response for HDAC3 at 10 μM (gdf11 reporter gene) (HDAC3; 10 μM, relative to SAHA, HeLa cells, 24 hours) [%] | % of SAHA Response for HDAC7 at 10 μM (Nur77 reporter gene) (HDAC7) [%] |
| --- | --- | --- | --- | --- | --- | --- | --- | --- | --- | --- | --- |
| 99.3 | 70 | 89 | O=C(C=C1c2ccccc2-c2ccccc21)NCCCCCCCC(=O)NO [Example 26, 8-(2-(9H-fluoren-9-ylidene)acetamido)-N-hydroxyoctanamide] | 61 | 87 | – | – | – | – | – | – |
| 42.3 | 12 | 7 | Nc1cc(F)ccc1NC(=O)CCCCCCCNC(=O)C=C1c2ccccc2-c2ccccc21 [Example 27, 8-(2-(9H-fluoren-9-ylidene)acetamido)-N-(2-amino-4-fluorophenyl)octanamide] | 18 | 16 | – | – | – | – | – | – |
| 48 | 33 | 20 | Nc1ccccc1NC(=O)CCCCCCCNC(=O)C=C1c2ccccc2-c2ccccc21 [Example 28, 8-(2-(9H-fluoren-9-ylidene)acetamido)-N-(2-aminophenyl)octanamide] | 62 | 38 | – | – | – | – | – | – |
